Data reported in PubChem BioAssay (NCI).
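Dose response: 5 concentrations. Exposure: 48 h. Format: 96-well plates. Endpoint: linear interpolation; highest concentration if not reached. TGI: concentration producing complete growth inhibition.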

System: SN12C renal
Assay: NCI-60 cell line screen, 48 h

`COc1cc2cnc3c4cc(OC(C)C)c(OC)cc4ccc3c2cc1OC` and `Cc1cc(=O)[nH]c2cc3oc4ccccc4c3cc12` cannot be ordered by TGI: > 100 µM for the first, > 100 µM for the second.

`CC1CN1P1(N2CC2C)=NP(N2CC2C)(N2CC2C)=NP(N2CC2C)(N2CC2C)=N1` (stereo not given) and `C1=CC2C=CC(C=C1)P2c1ccccc1` (stereo not given) cannot be ordered by TGI: > 50 µM for the first, > 100 µM for the second.

With `C[n+]1c2ccccc2c(NCC(=O)O)c2ccccc21` the TGI was > 100 µM.

System: SNB-75 CNS
Assay: NCI-60 cell line screen, 48 h

Point of comparison: `O=C(/C=C/c1ccccc1Cl)c1ccc(Cl)c(Cl)c1`, TGI 27.3 µM. Against it:
- S=C1NCCN1 — higher, > 100 µM
- COc1cc2cnc3c4cc(OC(C)C)c(OC)cc4ccc3c2cc1OC — higher, > 100 µM
- CC1CN1P1(N2CC2C)=NP(N2CC2C)(N2CC2C)=NP(N2CC2C)(N2CC2C)=N1 (stereo not given) — higher, > 50 µM
- C1=CC2C=CC(C=C1)P2c1ccccc1 (stereo not given) — higher, > 100 µM
- C[n+]1c2ccccc2c(NCC(=O)O)c2ccccc21 — higher, > 100 µM
- Cc1cc(=O)[nH]c2cc3oc4ccccc4c3cc12 — higher, > 100 µM

System: KM12 colon
Assay: NCI-60 cell line screen, 48 h

Point of comparison: `O=C(/C=C/c1ccccc1Cl)c1ccc(Cl)c(Cl)c1`, TGI 29.7 µM. Against it:
- S=C1NCCN1 — higher, > 100 µM
- COc1cc2cnc3c4cc(OC(C)C)c(OC)cc4ccc3c2cc1OC — higher, > 100 µM
- C1=CC2C=CC(C=C1)P2c1ccccc1 (stereo not given) — higher, > 100 µM
- C[n+]1c2ccccc2c(NCC(=O)O)c2ccccc21 — higher, > 100 µM
- Cc1cc(=O)[nH]c2cc3oc4ccccc4c3cc12 — higher, > 100 µM

System: NCI-H226 lung
Assay: NCI-60 cell line screen, 48 h

`O=C(/C=C/c1ccccc1Cl)c1ccc(Cl)c(Cl)c1` and `C[n+]1c2ccccc2c(NCC(=O)O)c2ccccc21` cannot be ordered by TGI: > 100 µM for the first, > 100 µM for the second.

`S=C1NCCN1` and `Cc1cc(=O)[nH]c2cc3oc4ccccc4c3cc12` cannot be ordered by TGI: > 100 µM for the first, > 100 µM for the second.

`CC1CN1P1(N2CC2C)=NP(N2CC2C)(N2CC2C)=NP(N2CC2C)(N2CC2C)=N1` (stereo not given) and `C1=CC2C=CC(C=C1)P2c1ccccc1` (stereo not given) cannot be ordered by TGI: > 50 µM for the first, > 100 µM for the second.

System: COLO 205 colon
Assay: NCI-60 cell line screen, 48 h

`O=C(/C=C/c1ccccc1Cl)c1ccc(Cl)c(Cl)c1` and `C[n+]1c2ccccc2c(NCC(=O)O)c2ccccc21` cannot be ordered by TGI: > 100 µM for the first, > 100 µM for the second.

`S=C1NCCN1` and `Cc1cc(=O)[nH]c2cc3oc4ccccc4c3cc12` cannot be ordered by TGI: > 100 µM for the first, > 100 µM for the second.

`COc1cc2cnc3c4cc(OC(C)C)c(OC)cc4ccc3c2cc1OC` and `C1=CC2C=CC(C=C1)P2c1ccccc1` (stereo not given) cannot be ordered by TGI: > 100 µM for the first, > 100 µM for the second.

`CC1CN1P1(N2CC2C)=NP(N2CC2C)(N2CC2C)=NP(N2CC2C)(N2CC2C)=N1` (stereo not given) was tested, and the TGI was > 50 µM.

System: BT-549 breast
Assay: NCI-60 cell line screen, 48 h

`C1=CC2C=CC(C=C1)P2c1ccccc1` (stereo not given) and `Cc1cc(=O)[nH]c2cc3oc4ccccc4c3cc12` cannot be ordered by TGI: > 100 µM for the first, > 100 µM for the second.

System: MOLT-4 leukemia
Assay: NCI-60 cell line screen, 48 h

Point of comparison: `O=C(/C=C/c1ccccc1Cl)c1ccc(Cl)c(Cl)c1`, TGI 61.4 µM. Against it:
- S=C1NCCN1 — higher, > 100 µM
- COc1cc2cnc3c4cc(OC(C)C)c(OC)cc4ccc3c2cc1OC — higher, > 100 µM
- CC1CN1P1(N2CC2C)=NP(N2CC2C)(N2CC2C)=NP(N2CC2C)(N2CC2C)=N1 (stereo not given) — not separable, > 50 µM
- C1=CC2C=CC(C=C1)P2c1ccccc1 (stereo not given) — higher, > 100 µM
- C[n+]1c2ccccc2c(NCC(=O)O)c2ccccc21 — higher, > 100 µM
- Cc1cc(=O)[nH]c2cc3oc4ccccc4c3cc12 — not separable, > 48.5 µM

System: XF 498 CNS
Assay: NCI-60 cell line screen, 48 h

`S=C1NCCN1` and `CC1CN1P1(N2CC2C)=NP(N2CC2C)(N2CC2C)=NP(N2CC2C)(N2CC2C)=N1` (stereo not given) cannot be ordered by TGI: > 100 µM for the first, > 50 µM for the second.

For `COc1cc2cnc3c4cc(OC(C)C)c(OC)cc4ccc3c2cc1OC`, the TGI was > 100 µM.

System: PC-3 prostate
Assay: NCI-60 cell line screen, 48 h

`C1=CC2C=CC(C=C1)P2c1ccccc1` (stereo not given) and `Cc1cc(=O)[nH]c2cc3oc4ccccc4c3cc12` cannot be ordered by TGI: > 100 µM for the first, > 100 µM for the second.

System: SW-620 colon
Assay: NCI-60 cell line screen, 48 h

Point of comparison: `O=C(/C=C/c1ccccc1Cl)c1ccc(Cl)c(Cl)c1`, TGI 28.3 µM. Against it:
- S=C1NCCN1 — higher, > 100 µM
- COc1cc2cnc3c4cc(OC(C)C)c(OC)cc4ccc3c2cc1OC — higher, > 100 µM
- CC1CN1P1(N2CC2C)=NP(N2CC2C)(N2CC2C)=NP(N2CC2C)(N2CC2C)=N1 (stereo not given) — higher, > 50 µM
- C1=CC2C=CC(C=C1)P2c1ccccc1 (stereo not given) — higher, > 100 µM
- C[n+]1c2ccccc2c(NCC(=O)O)c2ccccc21 — higher, > 100 µM
- Cc1cc(=O)[nH]c2cc3oc4ccccc4c3cc12 — higher, > 100 µM

System: A498 renal
Assay: NCI-60 cell line screen, 48 h

Point of comparison: `O=C(/C=C/c1ccccc1Cl)c1ccc(Cl)c(Cl)c1`, TGI 33.9 µM. Against it:
- COc1cc2cnc3c4cc(OC(C)C)c(OC)cc4ccc3c2cc1OC — higher, > 100 µM
- CC1CN1P1(N2CC2C)=NP(N2CC2C)(N2CC2C)=NP(N2CC2C)(N2CC2C)=N1 (stereo not given) — higher, > 50 µM
- C1=CC2C=CC(C=C1)P2c1ccccc1 (stereo not given) — higher, > 100 µM
- C[n+]1c2ccccc2c(NCC(=O)O)c2ccccc21 — higher, > 100 µM
- Cc1cc(=O)[nH]c2cc3oc4ccccc4c3cc12 — higher, > 100 µM

System: DMS 273 small cell lung
Assay: NCI-60 cell line screen, 48 h

Point of comparison: `O=C(/C=C/c1ccccc1Cl)c1ccc(Cl)c(Cl)c1`, TGI 37.5 µM. Against it:
- S=C1NCCN1 — higher, > 100 µM
- CC1CN1P1(N2CC2C)=NP(N2CC2C)(N2CC2C)=NP(N2CC2C)(N2CC2C)=N1 (stereo not given) — higher, > 50 µM
- C[n+]1c2ccccc2c(NCC(=O)O)c2ccccc21 — higher, > 100 µM

System: CAKI-1 renal
Assay: NCI-60 cell line screen, 48 h

Point of comparison: `O=C(/C=C/c1ccccc1Cl)c1ccc(Cl)c(Cl)c1`, TGI 30.9 µM. Against it:
- S=C1NCCN1 — higher, > 100 µM
- COc1cc2cnc3c4cc(OC(C)C)c(OC)cc4ccc3c2cc1OC — higher, > 100 µM
- CC1CN1P1(N2CC2C)=NP(N2CC2C)(N2CC2C)=NP(N2CC2C)(N2CC2C)=N1 (stereo not given) — higher, > 50 µM
- C1=CC2C=CC(C=C1)P2c1ccccc1 (stereo not given) — higher, > 100 µM
- C[n+]1c2ccccc2c(NCC(=O)O)c2ccccc21 — higher, > 100 µM
- Cc1cc(=O)[nH]c2cc3oc4ccccc4c3cc12 — higher, > 100 µM

System: K-562 leukemia
Assay: NCI-60 cell line screen, 48 h

Point of comparison: `O=C(/C=C/c1ccccc1Cl)c1ccc(Cl)c(Cl)c1`, TGI 67.9 µM. Against it:
- S=C1NCCN1 — higher, > 100 µM
- COc1cc2cnc3c4cc(OC(C)C)c(OC)cc4ccc3c2cc1OC — higher, > 100 µM
- CC1CN1P1(N2CC2C)=NP(N2CC2C)(N2CC2C)=NP(N2CC2C)(N2CC2C)=N1 (stereo not given) — not separable, > 50 µM
- C1=CC2C=CC(C=C1)P2c1ccccc1 (stereo not given) — higher, > 100 µM
- C[n+]1c2ccccc2c(NCC(=O)O)c2ccccc21 — higher, > 100 µM
- Cc1cc(=O)[nH]c2cc3oc4ccccc4c3cc12 — higher, > 100 µM

System: DLD-1 colon
Assay: NCI-60 cell line screen, 48 h

Point of comparison: `O=C(/C=C/c1ccccc1Cl)c1ccc(Cl)c(Cl)c1`, TGI 30.1 µM. Against it:
- S=C1NCCN1 — higher, > 100 µM
- COc1cc2cnc3c4cc(OC(C)C)c(OC)cc4ccc3c2cc1OC — higher, > 100 µM
- CC1CN1P1(N2CC2C)=NP(N2CC2C)(N2CC2C)=NP(N2CC2C)(N2CC2C)=N1 (stereo not given) — higher, > 50 µM
- C[n+]1c2ccccc2c(NCC(=O)O)c2ccccc21 — higher, > 100 µM

System: LXFL 529 NSCLC
Assay: NCI-60 cell line screen, 48 h

Point of comparison: `O=C(/C=C/c1ccccc1Cl)c1ccc(Cl)c(Cl)c1`, TGI 29.6 µM. Against it:
- S=C1NCCN1 — higher, > 100 µM
- COc1cc2cnc3c4cc(OC(C)C)c(OC)cc4ccc3c2cc1OC — higher, > 100 µM
- CC1CN1P1(N2CC2C)=NP(N2CC2C)(N2CC2C)=NP(N2CC2C)(N2CC2C)=N1 (stereo not given) — higher, > 50 µM
- C[n+]1c2ccccc2c(NCC(=O)O)c2ccccc21 — higher, > 100 µM

System: HOP-62 NSCLC
Assay: NCI-60 cell line screen, 48 h

Point of comparison: `O=C(/C=C/c1ccccc1Cl)c1ccc(Cl)c(Cl)c1`, TGI 57.6 µM. Against it:
- S=C1NCCN1 — higher, > 100 µM
- COc1cc2cnc3c4cc(OC(C)C)c(OC)cc4ccc3c2cc1OC — higher, > 100 µM
- C1=CC2C=CC(C=C1)P2c1ccccc1 (stereo not given) — higher, > 100 µM
- C[n+]1c2ccccc2c(NCC(=O)O)c2ccccc21 — higher, > 100 µM
- Cc1cc(=O)[nH]c2cc3oc4ccccc4c3cc12 — higher, > 100 µM

System: SR leukemia
Assay: NCI-60 cell line screen, 48 h

Point of comparison: `O=C(/C=C/c1ccccc1Cl)c1ccc(Cl)c(Cl)c1`, TGI 54.8 µM. Against it:
- S=C1NCCN1 — higher, > 100 µM
- CC1CN1P1(N2CC2C)=NP(N2CC2C)(N2CC2C)=NP(N2CC2C)(N2CC2C)=N1 (stereo not given) — not separable, > 50 µM
